Results taken from patent US20030226169A1, “DNA sequences encoding antifungal proteins” (priority 1995, published 2003).
≈ marks a conversion by molar mass, not a printed value. Non-standard residues stand in square brackets, D forms with d. Residues, ends and D or L forms follow the SMILES beside them. Abu = CC[C@H](N)C(=O)O

System: Fusarium culmorum (IMI 180420)
Test: Antifungal growth inhibition microplate assay (photospectrometry)
Type: cell-based
Conditions: for IC50 SMF + pH5 / IC50 SMF + pH7 / IC50 1/2 PDB: duplo; for IC50 ½ PDB: peptides single experiment; for IC50 1/2 PDB: 2 × 10^4 spores/ml; for F CULMORUM IC50: Table 7 / FIG. 8: Rs-AFP1-based 12-mer split peptides
Method: The following fungal strains were used: Alternaria brassicicola (MUCL 20297), Ascophyta pisi (MUCL 30164), Botrytis cinerea (MUCL 30158), Fusarium culmorum (IMI 180420) and Verticillium dahliae (MUCL 19210).
Fungi were grown on six cereal agar plates at room temperature and under white fluorescent light except for F culmorum and V dahliae which were grown in the dark. The duration of the spore harvest varied between 10 and 25 days depending on the strain. Spores were collected as follows. Five to ten ml of sterile milli-Q water was poured into each dish and the surface of the agar was rubbed with a sterile spatula to obtain a suspension containing mycelium and spores. This suspension was filtered through a sterile glasswool-plugged funnel and the filtrate containing the spores was collected in a sterile polypropylene centrifuge tube. The A brassicicola spores were suspended in sterile 0.1 Tween 20 (Merk, 822184) due to their hydrophobic nature. The spore suspensions were then washed twice by centrifugation at 2,400×g for 15 minutes and resuspended in a small volume of steril milli-Q water. The spore density was determined in a counting chamber and then adjusted to 4×10^7 spores per ml. Aliquots of the spore suspension were transferred to sterile microtubes and an equal volume of sterile 50% glycerol (Merck, 4091) was added to each tube so that a final spore suspension of 2×10^7 spores per ml in 25% glycerol was obtained. After careful mixing of the stock, the spore suspension was transferred in 100 μl aliquots to sterile microtubes and stored at −80° C.
Antifungal activity was measured by photospectrometry as described by Broekaert et al, (1990, FEMS Microbiol Lett, 69:55-60). Tests were performed by adding 20 μl of test solution and 80 μl of a fungal spore suspension (2×10^4 spores/ml) per well in a sterile flat-bottom 96-well microtiterplate. The spore suspension was prepared by diluting the stock spore suspension ([…] in 25% glycerol) 1:1000 in half-strength potato dextrose broth. A positive growth control consisting of eight wells containing 20 μl of sterile milli-Q water and 80 μl of the fungal spore suspension was included in each test. The microtiterplates were incubated (with the lid on) in an aerated place at room temperature and under conditions of darkness for all test organisms.
After 30 minutes of incubation (when the spores are settled on the well bottom) the optical density was measured in a microplate reader (Bio Rad 3550-UV) at 595 nm. Incubation of the microtiterplates continued until the optical density of the control microculture was between 0.250 and 0.500, which took approximately 72 hours (96 hours for V dahliae). Percentage of growth inhibition (% GI) was estimated as 100 times the ratio of the corrected absorbance of the control microculture minus the corrected absorbance of the test microculture over the corrected absorbance of the control microculture at 595 nm. The corrected absorbance values equal the absorbance at 595 nm of the culture measured after 72 or 96 hours minus the absorbance at 595 nm measured after 30 minutes.
% GI=[(Acontrol−Atest/Acontrol]×100
where Acontrol=(A72/96h−A30min)control
The IC50 value is defined as the concentration that gives a 50% growth inhibition after 72 or 96 hours of incubation. The minimum inhibitory concentration (MIC) corresponds to the minimum concentration that gives 100% growth inhibition after 72 or 96 hours incubation.

[1] = Table 3 / FIG. 6: Rs-AFP2-based 9-mer split peptides, ½ PDB, the source numbers peptides by N-terminal amino acid
[2] = Table 3: Rs-AFP2-based 9-mer split peptides, ½ PDB, duplicate
[3] = Table 4 / FIG. 6: Rs-AFP2-based 12-mer split peptides, ½ PDB, the source numbers peptides by N-terminal amino acid
[4] = Table 4: Rs-AFP2-based 12-mer split peptides, ½ PDB, triplicate
[5] = Table 14: 18-, 19-, 20-mer peptides with C-terminal Phe49
[6] = Table 10: medium 1/16 PDB, one test, fungus not named in Example 7
[7] = Table 10: medium ½ PDB, one test, fungus not named in Example 7
[8] = Table 13: linear β2-β3 loop MPS peptides
[9] = Table 13: linear β2-β3 loop MPS peptides, SMF+ (1 mM Ca2+, 50 mM K+) pH5
[10] = Table 13: linear β2-β3 loop MPS peptides, SMF+ (1 mM Ca2+, 50 mM K+) pH7
[11] = ½ PDB, the source numbers peptides by N-terminal amino acid
[12] = Table 7: Rs-AFP1-based 12-mer split peptides, ½ PDB

Compound: Ac-QCIRLEKAR-NH2 [compound 70]
- IC50 [1]: 78 mg/L
- MIC [2]: 100 mg/L

Compound: HGSBNYVFPAHKBIBY (Ac-HGS[Abu]NYVFPAHK[Abu]I[Abu]Y-NH2; listed as Raphanus sativus) [SEQ ID NO: 99]
- antifungal activity (in words) (overlapping 13- to 20-mer MPS peptides Ile26-Phe49, Cys replaced by alpha-aminobutyric acid, FIGS. 10-13): nonactive

Compound: Ac-KNQCIRLEKARH-NH2 [compound 111]
- IC50 [3]: 126 mg/L
- MIC [4]: 200 mg/L

Compound: CC[C@H](NC(=O)[C@H](CO)NC(=O)CNC(=O)[C@H](Cc1c[nH]cn1)NC(=O)[C@H](CCCNC(=N)N)NC(=O)[C@H](C)NC(C)=O)C(=O)N[C@@H](CC(N)=O)C(=O)N[C@@H](Cc1ccc(O)cc1)C(=O)N[C@H](C(=O)N[C@@H](Cc1ccccc1)C(=O)N1CCC[C@H]1C(=O)N[C@@H](C)C(=O)N[C@@H](Cc1c[nH]cn1)C(=O)N[C@@H](CCCCN)C(=O)N[C@@H](CC)C(=O)N[C@H](C(=O)N[C@@H](CC)C(=O)N[C@@H](Cc1ccc(O)cc1)C(=O)N[C@@H](Cc1ccccc1)C(N)=O)[C@@H](C)CC)C(C)C [Peptide 001, ARHGSBNYVFPAHKBIBYF] (Ac-ARHGS[Abu]NYVFPAHK[Abu]I[Abu]YF-NH2)
- IC50 SMF + pH5 [5]: 102 ± 2 μg/ml
- IC50 SMF + pH7 [5]: 159 ± 5 μg/ml
- IC50 ½ PDB [5]: 5.6 mg/L (≈ 2.54 µM)

Compound: CC[C@H](NC(=O)[C@H](CO)NC(=O)CNC(=O)[C@H](Cc1c[nH]cn1)NC(=O)[C@H](CCCNC(=N)N)NC(C)=O)C(=O)N[C@@H](CC(N)=O)C(=O)N[C@@H](Cc1ccc(O)cc1)C(=O)N[C@H](C(=O)N[C@@H](Cc1ccccc1)C(=O)N1CCC[C@H]1C(=O)N[C@@H](C)C(=O)N[C@@H](Cc1c[nH]cn1)C(=O)N[C@@H](CCCCN)C(=O)N[C@@H](CC)C(=O)N[C@H](C(=O)N[C@@H](CC)C(=O)N[C@@H](Cc1ccc(O)cc1)C(=O)N[C@@H](Cc1ccccc1)C(N)=O)[C@@H](C)CC)C(C)C [Peptide P02, RHGSBNYVFPAHKBIBYF] (Ac-RHGS[Abu]NYVFPAHK[Abu]I[Abu]YF-NH2)
- IC50 SMF + pH5 [5]: 69 ± 34 μg/ml
- IC50 SMF + pH7 [5]: 133 ± 6 μg/ml
- IC50 ½ PDB [5]: 8.9 mg/L (≈ 4.17 µM)

Compound: CC[C@H](NC(=O)[C@H](C)NC(=O)CNC(=O)[C@H](Cc1c[nH]cn1)NC(=O)[C@H](CO)NC(=O)[C@H](C)NC(C)=O)C(=O)N[C@@H](Cc1c[nH]cn1)C(=O)N[C@@H](CCCCN)C(=O)N[C@@H](CCCNC(=N)N)C(=O)N[C@@H](CCC(=O)O)C(=O)N[C@@H](CC(N)=O)C(=O)N[C@@H](Cc1c[nH]cn1)C(=O)N[C@@H](Cc1c[nH]c2ccccc12)C(=O)N[C@@H](CCCCN)C(=O)N[C@@H](CC)C(=O)N[C@@H](Cc1ccccc1)C(=O)N[C@@H](CC)C(=O)N[C@@H](Cc1ccc(O)cc1)C(=O)N[C@@H](Cc1ccccc1)C(N)=O [Peptide J1, ASHGABHKRENHWKBFBYF] (Ac-ASHGA[Abu]HKRENHWK[Abu]F[Abu]YF-NH2)
- antifungal activity compared with peptide G1 (and G2), in words (19-mer peptides, Example 7): even more active
- IC50 [6]: 5 mg/L (≈ 2.16 µM)
- MIC [6]: 6.25 mg/L (≈ 2.7 µM)
- IC50 [7]: 9 mg/L (≈ 3.89 µM)
- MIC [7]: 12.5 mg/L (≈ 5.41 µM)
- IC50 1/2 PDB [8]: 9.1 ± 0.6 mg/L (≈ 3.94 µM)
- IC50 SMF + pH5 [9]: 47 ± 33 μg/ml
- IC50 SMF + pH7 [10]: 173.4 ± 0.2 μg/ml
- activity compared to Rs-AFP counterpart G2 (½ PDB): almost two-fold higher activity

Compound: Ac-FPAHKC-NH2 [compound 40]
- MIC (Table 2: Rs-AFP2-based 6-mer split peptides, ½ PDB, duplicate): 100 mg/L

Compound: CC[C@H](C)[C@H](NC(=O)[C@H](CS)NC(=O)[C@H](CCC(N)=O)NC(=O)[C@H](CC(N)=O)NC(=O)[C@H](CCCCN)NC(=O)[C@H](CS)NC(=O)[C@H](C)NC(=O)[C@H](CC(N)=O)NC(C)=O)C(=O)N[C@@H](CCCNC(=N)N)C(N)=O [compound 65] (Ac-NACKNQCIR-NH2)
- IC50 [1]: 144 mg/L (≈ 132 µM)
- MIC [2]: 200 mg/L (≈ 183 µM)

Compound: Ac-LEKARHGSC-NH2 [compound 74]
- IC50 [1]: 270 mg/L
- MIC [2]: 400 mg/L
- F CULMORUM IC (Table 6 / FIG. 8: Rs-AFP1-based 9-mer split peptides, ½ PDB, the source numbers peptides by N-terminal amino acid): 370 µg/mL
- F CULMORUM MIC (Table 6: Rs-AFP1-based 9-mer split peptides, ½ PDB): >400 mg/L

Compound: CC[C@H](NC(=O)[C@H](CO)NC(=O)CNC(=O)[C@H](Cc1c[nH]cn1)NC(=O)[C@H](CCCNC(=N)N)NC(=O)[C@H](C)NC(=O)[C@H](CCCCN)NC(C)=O)C(=O)N[C@@H](CC(N)=O)C(=O)N[C@@H](Cc1ccc(O)cc1)C(=O)N[C@H](C(=O)N[C@@H](Cc1ccccc1)C(=O)N1CCC[C@H]1C(=O)N[C@@H](C)C(=O)N[C@@H](Cc1c[nH]cn1)C(=O)N[C@@H](CCCCN)C(=O)N[C@@H](CC)C(=O)N[C@H](C(=O)N[C@@H](CC)C(=O)N[C@@H](Cc1ccc(O)cc1)C(=O)N[C@@H](Cc1ccccc1)C(N)=O)[C@@H](C)CC)C(C)C [Peptide Q06, KARHGSBNYVFPAHKBIBYF] (Ac-KARHGS[Abu]NYVFPAHK[Abu]I[Abu]YF-NH2)
- IC50 SMF + pH5 [5]: 31 ± 17 μg/ml
- IC50 SMF + pH7 [5]: 62 ± 8 μg/ml
- IC50 ½ PDB [5]: 4.8 mg/L (≈ 2.06 µM)

Compound: 116 (RLEKARHGSCNY; listed as Raphanus sativus) [compound 116]
- IC50 [3]: 202 mg/L
- MIC [4]: 400 mg/L
- F CULMORUM IC50 [11]: 359 mg/L
- F CULMORUM MIC [12]: 400 mg/L

Compound: CC[C@H](NC(=O)[C@H](C)NC(=O)CNC(=O)[C@H](Cc1c[nH]cn1)NC(=O)[C@H](C)NC(=O)[C@H](C)NC(C)=O)C(=O)N[C@@H](Cc1c[nH]cn1)C(=O)N[C@H](C(=O)N[C@@H](CCCNC(=N)N)C(=O)N[C@@H](CC(N)=O)C(=O)NCC(=O)N[C@@H](CCCCN)C(=O)N[C@@H](Cc1c[nH]cn1)C(=O)N[C@@H](CCSC)C(=O)N[C@@H](CC)C(=O)N[C@@H](Cc1ccccc1)C(=O)N[C@@H](CC)C(=O)N[C@@H](Cc1ccc(O)cc1)C(=O)N[C@@H](Cc1ccccc1)C(N)=O)C(C)C [Peptide N5, AAHGABHVRNGKHMBFBYF] (Ac-AAHGA[Abu]HVRNGKHM[Abu]F[Abu]YF-NH2)
- IC50 1/2 PDB [8]: 8.0 ± 0.4 mg/L (≈ 3.74 µM)
- IC50 SMF + pH5 [9]: 20.9 ± 1.8 μg/ml
- IC50 SMF + pH7 [10]: 24.2 ± 0.2 μg/ml
- activity compared to Rs-AFP counterpart G2 (½ PDB): almost two-fold higher activity

Compound: CC[C@H](C)[C@H](NC(=O)[C@H](CS)NC(=O)[C@H](CCC(N)=O)NC(=O)[C@H](CC(N)=O)NC(=O)[C@H](CCCCN)NC(=O)[C@H](CS)NC(=O)[C@H](C)NC(C)=O)C(=O)N[C@@H](CCCNC(=N)N)C(=O)N[C@@H](CC(C)C)C(N)=O [compound 66] (Ac-ACKNQCIRL-NH2)
- IC50 [1]: 105 mg/L (≈ 96.4 µM)
- MIC [2]: 150 mg/L (≈ 138 µM)

Compound: CC[C@H](C)[C@H](NC(=O)[C@H](CS)NC(=O)[C@H](CCC(N)=O)NC(=O)[C@H](CC(N)=O)NC(=O)[C@H](CCCCN)NC(=O)[C@H](CS)NC(=O)[C@H](C)NC(C)=O)C(=O)N[C@@H](CCCNC(=N)N)C(=O)N[C@@H](CC(C)C)C(=O)N[C@@H](CCC(=O)O)C(=O)N[C@@H](CCCCN)C(=O)N[C@@H](C)C(N)=O [compound 109] (Ac-ACKNQCIRLEKA-NH2)
- IC50 [3]: 106 mg/L (≈ 74.8 µM)
- MIC [4]: 150 mg/L (≈ 106 µM)

Compound: 110 (CKNQCIRLEKAR; listed as Raphanus sativus) [compound 110]
- IC50 [3]: 148 mg/L
- MIC [4]: 200 mg/L
- F CULMORUM IC50 [11]: 223 mg/L
- F CULMORUM MIC [12]: 400 mg/L

Compound: 113 (QCIRLEKARHGS; listed as Raphanus sativus) [compound 113]
- IC50 [3]: 127 mg/L
- MIC [4]: 200 mg/L
- F CULMORUM IC50 [11]: 362 mg/L
- F CULMORUM MIC [12]: 400 mg/L
